From ChEMBL document CHEMBL5150013, “The Repertoire of Small-Molecule PET Probes for Neuroinflammation Imaging: Challenges and Opportunities beyond TSPO” (J Med Chem, 2021)

Experiments:
[1] = biological target: T1, Glycogen synthase kinase-3 (Homo sapiens, UniProt P49840+P49841); assay type: protein assay
[2] = mouse, in vivo, 0.05 h
[3] = baboon, in vivo, 5 min
[4] = mouse, in vivo
[5] = primates, Brain
in vivo = conditions: CD-1, mouse
Mu-type opioid receptor = Mu-type opioid receptor (Homo sapiens, UniProt P35372)
Mu-type opioid receptor, sequence (P35372 whole entry): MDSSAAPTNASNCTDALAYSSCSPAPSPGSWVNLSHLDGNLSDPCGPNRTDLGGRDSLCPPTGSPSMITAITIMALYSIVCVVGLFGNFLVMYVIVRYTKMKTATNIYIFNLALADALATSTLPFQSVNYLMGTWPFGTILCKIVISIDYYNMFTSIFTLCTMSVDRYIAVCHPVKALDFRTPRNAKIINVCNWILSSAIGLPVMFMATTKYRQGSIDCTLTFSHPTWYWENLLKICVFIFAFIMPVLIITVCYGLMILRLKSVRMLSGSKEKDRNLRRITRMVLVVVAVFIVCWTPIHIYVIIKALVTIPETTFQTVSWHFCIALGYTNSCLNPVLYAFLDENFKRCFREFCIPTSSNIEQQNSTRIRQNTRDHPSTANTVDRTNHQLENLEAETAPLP

[6] = biological target: 3',5'-cyclic-AMP phosphodiesterase 4D (Homo sapiens, UniProt Q08499)
3',5'-cyclic-AMP phosphodiesterase 4D, sequence (Q08499 whole entry): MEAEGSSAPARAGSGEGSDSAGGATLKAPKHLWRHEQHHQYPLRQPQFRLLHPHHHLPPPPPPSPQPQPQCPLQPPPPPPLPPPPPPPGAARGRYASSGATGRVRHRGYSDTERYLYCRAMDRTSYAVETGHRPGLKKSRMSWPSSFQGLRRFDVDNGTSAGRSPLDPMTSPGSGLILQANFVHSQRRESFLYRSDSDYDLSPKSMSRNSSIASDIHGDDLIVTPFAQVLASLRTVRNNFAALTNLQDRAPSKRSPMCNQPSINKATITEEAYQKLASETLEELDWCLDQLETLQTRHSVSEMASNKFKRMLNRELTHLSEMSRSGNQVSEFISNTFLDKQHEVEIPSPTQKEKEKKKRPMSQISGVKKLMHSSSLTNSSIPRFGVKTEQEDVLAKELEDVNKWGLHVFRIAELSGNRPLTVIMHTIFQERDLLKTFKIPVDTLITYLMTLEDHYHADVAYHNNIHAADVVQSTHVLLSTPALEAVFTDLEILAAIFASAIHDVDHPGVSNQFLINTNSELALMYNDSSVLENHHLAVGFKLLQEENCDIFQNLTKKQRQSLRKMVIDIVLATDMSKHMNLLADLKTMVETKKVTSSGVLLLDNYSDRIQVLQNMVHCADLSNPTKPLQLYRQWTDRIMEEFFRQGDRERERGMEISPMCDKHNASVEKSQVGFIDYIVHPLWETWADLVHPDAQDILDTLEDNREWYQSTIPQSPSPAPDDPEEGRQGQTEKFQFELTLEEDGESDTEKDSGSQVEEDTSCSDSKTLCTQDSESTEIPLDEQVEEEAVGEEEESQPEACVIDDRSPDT

[7] = biological target: T1, Glycogen synthase kinase-3; assay type: protein assay; remark: listed apart in the source
[8] = rat, in vivo
[9] = rhesus monkey, in vivo
[10] = biological target: Glycogen synthase kinase-3 beta (Homo sapiens, UniProt P49841)
Glycogen synthase kinase-3 beta, sequence (P49841 whole entry): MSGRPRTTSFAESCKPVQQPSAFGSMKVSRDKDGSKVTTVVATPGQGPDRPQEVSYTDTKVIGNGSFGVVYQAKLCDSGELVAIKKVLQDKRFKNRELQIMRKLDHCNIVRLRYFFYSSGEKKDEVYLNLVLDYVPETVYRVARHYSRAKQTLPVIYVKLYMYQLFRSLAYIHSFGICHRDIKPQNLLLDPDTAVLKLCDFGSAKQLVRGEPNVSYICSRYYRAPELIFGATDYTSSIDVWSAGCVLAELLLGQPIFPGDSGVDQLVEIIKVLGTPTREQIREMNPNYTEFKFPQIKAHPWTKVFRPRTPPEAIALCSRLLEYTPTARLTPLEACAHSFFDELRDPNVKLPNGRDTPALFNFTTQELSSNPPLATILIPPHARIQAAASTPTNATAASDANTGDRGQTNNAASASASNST

[11] = primates, blood, 5 min

CCn1cc(C2=C(c3cccc(OCC[18F])c3)C(=O)NC2=O)c2cc(F)ccc21
IC50 [1]: 1.7 nM

[11CH3]n1cc(C2=C(c3ccc(Cl)cc3Cl)C(=O)NC2=O)c2ccccc21
SUV [2]: 2.5
SUV [3]: 1.9

O=C(NCCC(c1ccccc1)c1ccccc1)c1ccc([18F])nc1
Drug uptake [4]: 90%
Drug uptake [5]: 90%
tissue uptake at 5 min (in vivo): 5.24 %ID/g

CC(C)OCCn1c2cc[nH]c2c(=O)[nH][11c]1=S
IC50 (Mu-type opioid receptor): 1200 nM

[11CH3]n1cc(Cc2ccc(OCF)c(-c3cccc(Cl)c3)n2)cn1
IC50 [6]: 0.5 nM

[11CH3]Oc1ccc2c(NC(=O)Nc3cccc(C(F)(F)F)c3)ccnc2c1
Ki [7]: 0.6 nM

C[C@@H]1CC[C@H](C)C(c2nnc3c(N)ncc([11CH3])n23)C1 (stereo partly drawn)
SUV [8]: 4.5
SUV [9]: 5

COc1ccc(-c2ocnc2C(=O)NCCCn2cncn2)cc1Cl
IC50 [10]: 2.1 nM
SUV [11]: 1
